Results reported in PMC10390520, “Antibody binding of amyloid beta peptide epimers/isomers and ramifications for immunotherapies and drug development” (Scientific Reports, 2023).

Test system: antibodies 4G8, 6E10, mOC98 and mOC23
Experiment: Immunoprecipitation of Aβ 1–42 peptides with four antibodies, LC-MS/MS detection
Type: binding
Conditions: Fig. 3B data, corrected with individual MS/MS calibration curves; 11 pmol Aβ peptide, 13.2 pmol antibody in 300 µL IP lysis/wash buffer; Protein A/G plus agarose; LC-MS/MS 903–886 m/z; triplicate
Procedure: Antibody binding efficacy was assessed through an immunoprecipitation procedure, followed by reconstitution in borate buffer and analysis via liquid chromatography tandem mass spectrometry (see Methods). […] Note that these antibodies were developed using the WT (all L) Aβ peptide. Further, the MS/MS detection also was optimized using the WT (all L) Aβ peptide. […] The reduced signal intentensities could be attributed to the altered binding between the antibody and the “aberrant” forms of Aβ, differences in the MS/MS of the “aberrant” Aβ or combinations of these two factors. […]
Purified anti-β-Amyloids 17–24 Antibody (4G8) and 1–16 Antibody (6E10) were purchased from BioLegend (San Diego, CA, USA) while mOC-type antibodies recombinant anti-beta amyloid 1–42 mOC98 and mOC23 were purchased from Abcam (Cambridge, UK). Antibody-antigen binding was measured using Pierce Classic IP Kit by Thermo Fisher Scientific (Waltham, MA, USA). […] Elution buffer was evaporated and samples were reconstituted in 20 µL of 0.1 M borate buffered to pH 9.1 and analyzed by LC–MS/MS. […]
HPLC–MS grade acetonitrile was purchased from Sigma-Aldrich and ultrapure water was obtained from a Milli-Q-water system (Millipore, Bedford, MA, USA). […] WT (all L) Aβ 1–42 and aberrant Aβ 1–42 immunoprecipitated standards were quantitated using the MS/MS transition 903–886 m/z. […]

Which “antibody binding affinity (immunoprecipitation extraction) compared to WT (all L) Aβ” value does the source give for “WT (all L) Aβ: unmodified wild-type all-L amyloid beta 1–42 peptide, purchased from Genscript” here?
The value was “same efficacy”.
